From PubChem BioAssay (NCI)
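96-well plates; 48 h exposure; 5 concentrations. Endpoints by linear interpolation between flanking doses. Not reached: highest tested concentration assigned. TGI marks complete inhibition of growth.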

Experiments:
Assay in all cases: inhibition of tumour cell growth, NCI panel, 48 h
[1] = test system: UO-31 renal
[2] = test system: M14 melanoma
[3] = test system: SW-620 colon
[4] = test system: HCC-2998 colon
[5] = test system: SF-539 CNS
[6] = test system: MDA-N
[7] = test system: DU-145 prostate
[8] = test system: NCI-H522 lung
[9] = test system: A549 NSCLC
[10] = test system: HCT-15 colon
[11] = test system: NCI-H460 lung
[12] = test system: U251 CNS
[13] = test system: T-47D breast
[14] = test system: OVCAR-4 ovarian
[15] = test system: SK-MEL-28 melanoma
[16] = test system: MDA-MB-435
[17] = test system: MALME-3M melanoma
[18] = test system: HCT-116 colon
[19] = test system: LOX IMVI melanoma
[20] = test system: HOP-62 NSCLC
[21] = test system: SF-295 CNS
[22] = test system: NCI/ADR-RES ovarian
[23] = test system: SN12C renal
[24] = test system: HL-60(TB) leukemia
[25] = test system: IGROV1 ovarian
[26] = test system: MDA-MB-231 breast
[27] = test system: RPMI-8226 leukemia
[28] = test system: HOP-92 NSCLC
[29] = test system: SK-MEL-5 melanoma
[30] = test system: UACC-257 melanoma
[31] = test system: KM12 colon
[32] = test system: SF-268 CNS
[33] = test system: ACHN renal
[34] = test system: SNB-75 CNS
[35] = test system: A498 renal
[36] = test system: UACC-62 melanoma
[37] = test system: BT-549 breast
[38] = test system: SNB-19 CNS
[39] = test system: MCF7 breast
[40] = test system: SR leukemia
[41] = test system: PC-3 prostate
[42] = test system: NCI-H226 lung
[43] = test system: SK-MEL-2 melanoma
[44] = test system: EKVX NSCLC
[45] = test system: MOLT-4 leukemia
[46] = test system: OVCAR-8 ovarian
[47] = test system: CCRF-CEM leukemia
[48] = test system: OVCAR-5 ovarian
[49] = test system: COLO 205 colon
[50] = test system: TK-10 renal
[51] = test system: 786-0 renal
[52] = test system: NCI-H23 lung
[53] = test system: HS 578T breast
[54] = test system: OVCAR-3 ovarian
[55] = test system: HT29 colon
[56] = test system: K-562 leukemia
[57] = test system: RXF 393 renal
[58] = test system: SK-OV-3 ovarian
[59] = test system: CAKI-1 renal

Measured: TGI

O=C1CC(c2ccccc2Cl)C2(C(=O)NC(=S)NC2=O)C(c2ccccc2Cl)C1 (stereo not drawn)
0.206 µM: [50]
77 µM: [25]
71.4 µM: [42]
66.6 µM: [21]
99.3 µM: [8]
65.8 µM: [23]
40.2 µM: [39]
52.1 µM: [4]
22.8 µM: [53]
58.6 µM: [29]
81.8 µM: [41]
36.4 µM: [19]
98.2 µM: [37]
93.5 µM: [13]
38.3 µM: [32]
32.8 µM: [12] | [57]
30.6 µM: [30]
> 100 µM: [1] | [3] | [5] | [6] | [7] | [14] | [15] | [20] | [22] | [24] | [27] | [34] | [40] | [44] | [45] | [47] | [48] | [49] | [55] | [56] | [58]
30.9 µM: [38]
62 µM: [43]
60 µM: [54]
55.7 µM: [33]
40.4 µM: [35]
51 µM: [51]
40.8 µM: [36]
49.6 µM: [46]
37.7 µM: [52]
27.1 µM: [31]
41 µM: [18]
65.5 µM: [9]
34.4 µM: [16]
32.1 µM: [28]
53.6 µM: [10]
42.9 µM: [11]
38.9 µM: [2]
31 µM: [17]
72.8 µM: [26]

CC(=O)c1c(C)cn(S(=O)(=O)NC(=O)Nc2nncs2)c1C
> 100 µM: [1] | [2] | [3] | [4] | [6] | [7] | [8] | [9] | [10] | [11] | [12] | [13] | [14] | [15] | [16] | [17] | [18] | [19] | [20] | [21] | [22] | [23] | [24] | [25] | [26] | [27] | [28] | [29] | [30] | [31] | [32] | [33] | [34] | [35] | [36] | [37] | [38] | [39] | [40] | [41] | [42] | [43] | [44] | [45] | [59] | [46] | [48] | [49] | [50] | [51] | [52] | [53] | [54] | [55] | [56] | [57] | [58]
78.1 µM: [47]

Cc1cc(CN2CCCCC2)c(O)c(CN2CCCCC2)c1
> 100 µM: [1] | [2] | [3] | [4] | [6] | [7] | [8] | [9] | [10] | [11] | [12] | [13] | [14] | [15] | [16] | [17] | [18] | [19] | [20] | [21] | [22] | [23] | [24] | [25] | [26] | [27] | [28] | [29] | [30] | [31] | [32] | [33] | [34] | [35] | [36] | [37] | [38] | [39] | [40] | [41] | [42] | [43] | [44] | [59] | [46] | [47] | [48] | [49] | [50] | [51] | [52] | [53] | [54] | [55] | [56] | [57] | [58]

COC(=O)Cc1c([C@H]2[C@H](CC(=O)OC)c3ccccc3N2C(=O)C(F)(F)F)[nH]c2ccccc12
> 100 µM: [1] | [3] | [4] | [5] | [6] | [7] | [9] | [10] | [13] | [14] | [15] | [18] | [19] | [20] | [23] | [24] | [25] | [27] | [28] | [30] | [32] | [33] | [35] | [38] | [39] | [41] | [42] | [44] | [59] | [46] | [48] | [50] | [51] | [52] | [55] | [56] | [58]
56.2 µM: [8] | [47]
80.7 µM: [21]
38 µM: [54]
97.2 µM: [37]
84.6 µM: [34]
58.3 µM: [43]
38.4 µM: [45]
30.3 µM: [36]
55 µM: [11]
82.3 µM: [40]
73.4 µM: [26]
24.8 µM: [29]
62 µM: [16]
98.4 µM: [57]
36.1 µM: [49]
47.8 µM: [12]
90.6 µM: [17]
91.3 µM: [22]
92.1 µM: [53]

O=S(=O)(c1ccccc1)[C@H]1[C@@H]2O[C@@H]2C[C@@H]1O
> 100 µM: [1] | [2] | [3] | [4] | [5] | [6] | [7] | [8] | [9] | [10] | [11] | [12] | [13] | [14] | [15] | [16] | [17] | [18] | [20] | [21] | [22] | [23] | [24] | [25] | [26] | [27] | [28] | [29] | [30] | [31] | [32] | [33] | [34] | [35] | [36] | [37] | [38] | [39] | [40] | [41] | [42] | [43] | [44] | [45] | [59] | [46] | [47] | [48] | [49] | [50] | [51] | [52] | [53] | [54] | [55] | [56] | [57] | [58]
